Laboratory results from patent US9440978B2, “Imidazolo-, oxazolo-, and thiazolopyrimidine modulators of TRPV1” (Janssen Pharmaceutica NV, priority 2007, dated 2016).
Counter-ions that a name gives are not always drawn.

Key:
human TRPV1 = target: T1, human TRPV1 (Homo sapiens, UniProt Q8NER1); test: Block of capsaicin-induced Ca2+ influx, human assay (hTRPV1/HEK293, FLIPR); assay type: cell-based; conditions: HEK293 cells transfected with human TRPV1; 150 nM capsaicin challenge; mean; > value = solubility limit in assay medium
T1 construct: expressed in transfected cells; host or cells: HEK293
Protocol: (§1) HEK293 cells were transfected with human TRPV1 cloned in pcDNA3.1zeo(+) using the Effectene non-liposomal lipid based transfection kit (Qiagen) (hTRPV1/HEK293). hTRPV1/HEK293 cells were routinely grown as monolayers under selection in zeocin (200 μg/mL; Invitrogen) in Dulbecco's Modified Eagle Medium (DMEM, Gibco BRL) supplemented with 10% fetal bovine serum, and penicillin/streptomycin (50 units/mL) in 5% CO2 at 37° C. Cells were passaged frequently, every 3-5 days, to avoid overgrowth, depletion of essential medium components, or acidic medium exposure. Cells were passaged using a brief wash in 0.05% trypsin with 1 mM EDTA, followed by dissociation in divalent-free phosphate-buffered saline (Hyclone #SH30028.02). […] The assay buffer was composed of 130 mM NaCl, 2 mM KCl, 2 mM MgCl2, 10 mM HEPES, 5 mM glucose, and either 2 mM or 20 μM CaCl2. On the day of the experiment, the culture medium was replaced with 2 mM calcium assay buffer using an automated plate washer (ELx405; Biotek, VT). […] After loading the cells, the dye solution was replaced with 50 μL/well of 20 μM calcium assay buffer using the ELx405 plate washer. Test compounds (50 μL/well) were added to the plate and incubated for 30 min. Intracellular Ca^2+ levels were subsequently assayed using a Fluorometric Imaging Plate Reader (FLIPR™ instrument, Molecular Devices, CA) to simultaneously monitor Fluo-3 fluorescence in all wells (λexcitation=488 nm, λemission=540 nm) during challenge with agonist (capsaicin). The IC50 values were determined. […] The contents of the wells were mixed 3 times (40 μL mix volume) immediately after the additions were made. Concentration-dependence of block was determined by exposing each well of cells in duplicate rows of a 96-well plate to a serial dilution of test compound. The concentration series usually started at 10 μM with a three-fold serial decrement in concentration. The magnitude of the capsaicin response was determined by measuring the change in fluo3 fluorescence before and 100 seconds after the addition of the agonist. Data were analyzed using a non-linear regression program (Origin; OriginLab, MA).
(§2) IC50 values shown are the average (mean) of the results obtained. […] Compounds were tested as in the free base, trifluoroacetic acid salt, or hydrochloride salt form.

rat TRPV1 = target: T2, rat TRPV1 (Rattus norvegicus, UniProt O35433); test: Block of capsaicin-induced Ca2+ influx, rat assay (rTRPV1/HEK293, FLIPR); assay type: cell-based; conditions: HEK293 cells transfected with rat TRPV1; capsaicin challenge; mean; > value = solubility limit in assay medium; read-out: Rat IC50
T2 construct: expressed in transfected cells; host or cells: HEK293
Protocol: as §1
This assay was performed similarly to the human assay described above, but using HEK293 cells transfected with rat TRPV1 (rTRPV1/HEK293).
as §2

T1 sequence (Q8NER1 whole entry): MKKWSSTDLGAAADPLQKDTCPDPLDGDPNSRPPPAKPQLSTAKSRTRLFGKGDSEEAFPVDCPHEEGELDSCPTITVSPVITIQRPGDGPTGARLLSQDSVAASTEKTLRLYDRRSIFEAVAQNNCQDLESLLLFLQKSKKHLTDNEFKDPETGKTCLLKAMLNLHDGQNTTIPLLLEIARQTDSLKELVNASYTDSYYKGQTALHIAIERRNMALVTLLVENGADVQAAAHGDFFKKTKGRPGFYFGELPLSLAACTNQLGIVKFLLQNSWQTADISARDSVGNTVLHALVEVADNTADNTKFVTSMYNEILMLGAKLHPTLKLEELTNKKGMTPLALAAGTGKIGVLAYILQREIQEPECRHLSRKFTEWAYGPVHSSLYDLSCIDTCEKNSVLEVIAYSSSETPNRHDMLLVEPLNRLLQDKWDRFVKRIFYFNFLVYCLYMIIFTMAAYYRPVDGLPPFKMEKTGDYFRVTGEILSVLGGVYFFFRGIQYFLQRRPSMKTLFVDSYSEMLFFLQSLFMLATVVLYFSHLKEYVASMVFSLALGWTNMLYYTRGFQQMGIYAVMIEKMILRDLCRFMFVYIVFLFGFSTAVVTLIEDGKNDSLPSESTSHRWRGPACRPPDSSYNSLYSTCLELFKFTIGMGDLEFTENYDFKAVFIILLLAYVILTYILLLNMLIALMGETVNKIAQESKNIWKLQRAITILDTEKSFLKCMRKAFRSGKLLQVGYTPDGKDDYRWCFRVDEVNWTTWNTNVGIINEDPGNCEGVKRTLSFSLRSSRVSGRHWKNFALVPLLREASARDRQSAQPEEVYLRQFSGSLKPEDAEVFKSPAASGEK
T2 sequence (O35433 whole entry): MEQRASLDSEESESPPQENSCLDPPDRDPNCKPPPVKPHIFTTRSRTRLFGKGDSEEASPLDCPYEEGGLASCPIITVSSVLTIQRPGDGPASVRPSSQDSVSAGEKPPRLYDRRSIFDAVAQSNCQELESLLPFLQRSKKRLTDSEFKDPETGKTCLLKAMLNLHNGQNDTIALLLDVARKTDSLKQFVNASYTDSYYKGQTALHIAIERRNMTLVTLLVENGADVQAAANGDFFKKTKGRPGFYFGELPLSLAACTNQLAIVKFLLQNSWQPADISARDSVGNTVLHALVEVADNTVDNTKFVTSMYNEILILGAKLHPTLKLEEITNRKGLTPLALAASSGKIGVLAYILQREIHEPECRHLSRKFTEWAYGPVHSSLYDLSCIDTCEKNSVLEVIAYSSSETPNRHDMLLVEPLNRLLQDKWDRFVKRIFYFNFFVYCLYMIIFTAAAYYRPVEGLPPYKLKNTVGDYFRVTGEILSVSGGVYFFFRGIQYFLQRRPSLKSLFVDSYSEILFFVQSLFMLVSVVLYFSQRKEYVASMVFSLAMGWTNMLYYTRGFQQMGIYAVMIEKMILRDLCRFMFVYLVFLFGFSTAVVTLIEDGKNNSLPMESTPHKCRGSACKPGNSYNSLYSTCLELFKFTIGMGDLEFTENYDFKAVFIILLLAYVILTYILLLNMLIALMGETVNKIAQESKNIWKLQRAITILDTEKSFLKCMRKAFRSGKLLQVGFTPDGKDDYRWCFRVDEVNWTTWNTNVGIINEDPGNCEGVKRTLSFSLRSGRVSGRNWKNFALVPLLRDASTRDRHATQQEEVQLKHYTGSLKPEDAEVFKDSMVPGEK

| Compound | IC50 (human TRPV1) [nM] | IC50 (rat TRPV1) [nM] |
| --- | --- | --- |
| CSc1nc(Nc2ccc(C(F)(F)F)cc2)c2nc(Cc3c(Cl)cccc3Cl)sc2n1 [Example 5, [2-(2,6-Dichloro-benzyl)-5-methylsulfanyl-thiazolo[5,4-d]pyrimidin-7-yl]-(4-trifluoromethyl-phenyl)-amine] |  | > 6670 |
| O=S(=O)(c1ccc(Nc2ncnc3sc(Cc4c(Cl)cccc4Cl)nc23)cc1)N1CCNCC1 [Example 28, 2-(2,6-Dichlorobenzyl)-N-[4-(piperazin-1-ylsulfonyl)phenyl][1,3]thiazolo[5,4-d]pyrimidin-7-amine] |  | > 2220 |
| FC(F)(F)c1ccc(Nc2ncnc3sc(Cc4ccc(Cl)cc4Cl)nc23)cn1 [Example 29, 2-(2,4-Dichlorobenzyl)-N-[6-(trifluoromethyl)pyridin-3-yl][1,3]thiazolo[5,4-d]pyrimidin-7-amine] |  | 600 |
| CSc1ccc(Nc2ncnc3sc(Cc4c(Cl)cccc4Cl)nc23)cn1 [Example 38, 2-(2,6-Dichlorobenzyl)-N-[6-(methylsulfanyl)pyridin-3-yl][1,3]thiazolo[5,4-d]pyrimidin-7-amine] |  | 99 |
| CC(CO)Nc1nc(Nc2ccc(C(F)(F)F)cc2)c2nc(Cc3c(Cl)cccc3Cl)sc2n1 (stereo not drawn) [Example 70, 2-[2-(2,6-Dichloro-benzyl)-7-(4-trifluoromethyl-phenylamino)-thiazolo[5,4-d]pyrimidin-5-ylamino]-propan-1-ol] |  | 1020 |
| COC[C@@H]1CCCN1c1nc(Nc2ccc(C(F)(F)F)cc2)c2nc(Cc3c(Cl)cccc3Cl)sc2n1 [Example 71, (S)-[2-(2,6-Dichloro-benzyl)-5-(2-methoxymethyl-pyrrolidin-1-yl)-thiazolo[5,4-d]pyrimidin-7-yl]-(4-trifluoromethyl-phenyl)-amine] |  | 2450 |
| FC(F)(F)c1ccc(Nc2nc(N3CCNCC3)nc3sc(Cc4c(Cl)cccc4Cl)nc23)cc1 [Example 74, [2-(2,6-Dichloro-benzyl)-5-piperazin-1-yl-thiazolo[5,4-d]pyrimidin-7-yl]-(4-trifluoromethyl-phenyl)-amine trifluoroacetic acid salt] |  | > 6670 |
| CC(C)N1CCN(c2nc(Nc3ccc(C(F)(F)F)cc3)c3nc(Cc4c(Cl)cccc4Cl)sc3n2)CC1 [Example 75, [2-(2,6-Dichloro-benzyl)-5-(4-isopropyl-piperazin-1-yl)-thiazolo[5,4-d]pyrimidin-7-yl]-(4-trifluoromethyl-phenyl)-amine trifluoroacetic acid salt] |  | 132 |
| FC(F)(F)c1ccc(Nc2nc(NCCN3CCCC3)nc3sc(Cc4c(Cl)cccc4Cl)nc23)cc1 [Example 82, 2-(2,6-Dichloro-benzyl)-N^5-(2-pyrrolidin-1-yl-ethyl)-N^7-(4-trifluoromethyl-phenyl)-thiazolo[5,4-d]pyrimidine-5,7-diamine trifluoroacetic acid salt] |  | 959 |
| FC(F)(F)c1nnc(Nc2ncnc3sc(Cc4c(Cl)cccc4Cl)nc23)s1 [Example 98, 2-(2,6-Dichlorobenzyl)-N-[5-(trifluoromethyl)-1,3,4-thiadiazol-2-yl][1,3]thiazolo[5,4-d]pyrimidin-7-amine] |  | 1050 |
| CC(C)(C)c1nnc(Nc2ncnc3sc(Cc4c(Cl)cccc4Cl)nc23)s1 [Example 99, N-(5-tert-Butyl-1,3,4-thiadiazol-2-yl)-2-(2,6-dichlorobenzyl)[1,3]thiazolo[5,4-d]pyrimidin-7-amine] |  | 195 |
| CC(C)COc1nc(Nc2ccc(C(F)(F)F)cc2)c2nc(Cc3c(Cl)cccc3Cl)sc2n1 [Example 103, [2-(2,6-Dichloro-benzyl)-5-isobutoxy-thiazolo[5,4-d]pyrimidin-7-yl]-(4-trifluoromethyl-phenyl)-amine] |  | 16 |

Now from value to compound:

| IC50 (human TRPV1) [nM] | IC50 (rat TRPV1) [nM] | Compound |
| --- | --- | --- |
| 136 | 58 | FC(F)(F)c1ccc(Nc2ncnc3oc(Cc4c(Cl)cccc4Cl)nc23)cc1 [Example 1, [2-(2,6-Dichloro-benzyl)-oxazolo[5,4-d]pyrimidin-7-yl]-(4-trifluoromethyl-phenyl)-amine] |
| 75 | 30 | CC(C)(C)c1ccc(Nc2ncnc3oc(Cc4c(Cl)cccc4Cl)nc23)cc1 [Example 2, (4-tert-Butyl-phenyl)-[2-(2,6-dichloro-benzyl)-oxazolo[5,4-d]pyrimidin-7-yl]-amine] |
| 48 | 30 | FC(F)(F)c1ccc(Nc2ncnc3sc(Cc4c(Cl)cccc4Cl)nc23)cc1 [Example 3, [2-(2,6-Dichloro-benzyl)-thiazolo[5,4-d]pyrimidin-7-yl]-(4-trifluoromethyl-phenyl)-amine] |
| 22 | 8 | FC(F)(F)c1ccc(Nc2ncnc3sc(Cc4ccccc4I)nc23)cc1 [Example 4, [2-(2-Iodo-benzyl)-thiazolo[5,4-d]pyrimidin-7-yl]-(4-trifluoromethyl-phenyl)-amine] |
| 23 | 15 | Cc1nc(Nc2ccc(C(F)(F)F)cc2)c2nc(Cc3c(Cl)cccc3Cl)sc2n1 [Example 6, [2-(2,6-Dichloro-benzyl)-5-methyl-thiazolo[5,4-d]pyrimidin-7-yl]-(4-trifluoromethyl-phenyl)-amine] |
| 30 | 55 | FC(F)(F)c1ccc(Nc2ncnc3sc(Cc4c(Cl)cccc4Cl)nc23)cn1 [Example 8, [2-(2,6-Dichloro-benzyl)-thiazolo[5,4-d]pyrimidin-7-yl]-(6-trifluoromethyl-pyridin-3-yl)-amine] |
| 40 | 74 | FC(F)(F)c1ccc(Nc2ncnc3sc(Cc4c(Cl)cccc4Cl)nc23)cc1Cl [Example 9, (3-Chloro-4-trifluoromethyl-phenyl)-[2-(2,6-dichloro-benzyl)-thiazolo[5,4-d]pyrimidin-7-yl]-amine] |
| 190 | 57 | CS(=O)(=O)c1ccc(Nc2ncnc3sc(Cc4c(Cl)cccc4Cl)nc23)cc1 [Example 13, [2-(2,6-Dichloro-benzyl)-thiazolo[5,4-d]pyrimidin-7-yl]-(4-methanesulfonyl-phenyl)-amine] |
| 34 | 68 | O=S(=O)(c1ccc(Nc2ncnc3sc(Cc4c(Cl)cccc4Cl)nc23)cc1)C(F)(F)F [Example 14] |
| 33 | 54 | O=S(=O)(c1ccc(Nc2ncnc3sc(Cc4c(Cl)cccc4Cl)nc23)cc1)N1CCOCC1 [Example 15, [2-(2,6-Dichloro-benzyl)-thiazolo[5,4-d]pyrimidin-7-yl]-[4-(morpholine-4-sulfonyl)-phenyl]-amine] |
|  | 74 | COC(=O)C(C)(C)c1ccc(Nc2ncnc3sc(Cc4c(Cl)cccc4Cl)nc23)cc1 [Example 26, Methyl 2-(4-{[2-(2,6-dichlorobenzyl)[1,3]thiazolo[5,4-d]pyrimidin-7-yl]amino}phenyl)-2-methylpropanoate] |
|  | 43 | FC(F)(F)c1ccc(Nc2ncnc3sc(Cc4ccc(Cl)cc4Cl)nc23)cc1 [Example 27, 2-(2,4-Dichlorobenzyl)-N-[4-(trifluoromethyl)phenyl][1,3]thiazolo[5,4-d]pyrimidin-7-amine] |
|  | 4 | FC(F)(F)c1ccc(Nc2ncnc3sc(Cc4ccccc4C(F)(F)F)nc23)cc1 [Example 30, 2-[2-(Trifluoromethyl)benzyl]-N-[4-(trifluoromethyl)phenyl][1,3]thiazolo[5,4-d]pyrimidin-7-amine] |
|  | 13 | FC(F)(F)c1ccc(Nc2ncnc3sc(Cc4ccccc4C(F)(F)F)nc23)cn1 [Example 31, 2-[2-(Trifluoromethyl)benzyl]-N-[6-(trifluoromethyl)pyridin-3-yl][1,3]thiazolo[5,4-d]pyrimidin-7-amine] |
|  | 72 | CC(C)Nc1nc(Nc2ccc(C(F)(F)F)cc2)c2nc(Cc3c(Cl)cccc3Cl)sc2n1 [Example 72, 2-(2,6-Dichloro-benzyl)-N^5-isopropyl-N^7-(4-trifluoromethyl-phenyl)-thiazolo[5,4-d]pyrimidine-5,7-diamine] |
|  | 63 | FC(F)(F)c1ccc(Nc2nc(N3CCC3)nc3sc(Cc4c(Cl)cccc4Cl)nc23)cc1 [Example 73, [5-Azetidin-1-yl-2-(2,6-dichloro-benzyl)-thiazolo[5,4-d]pyrimidin-7-yl]-(4-trifluoromethyl-phenyl)-amine] |
|  | 14 | FC(F)(F)c1ccc(Nc2nc(N3CCCCC3)nc3sc(Cc4c(Cl)cccc4Cl)nc23)cc1 [Example 81, [2-(2,6-Dichloro-benzyl)-5-piperidin-1-yl-thiazolo[5,4-d]pyrimidin-7-yl]-(4-trifluoromethyl-phenyl)-amine] |
